Source: ChEMBL document CHEMBL4138123, “Design, synthesis and biological evaluation of novel pyrazolochalcones as potential modulators of PI3K/Akt/mTOR pathway and inducers of apoptosis in breast cancer cells” (Eur J Med Chem, 2017)

Columns and labels:
Assay type in all cases: functional
UACC-257 [1] = test: Cytotoxicity against human UACC257 cells assessed as cell growth at 100 uM after 48 hrs by sulforhodamine B assay relative to control; conditions: UACC-257, 48 h, read-out: Activity
HCC 2998 = test: Cytotoxicity against human HCC2998 cells assessed as cell growth at 1 uM after 48 hrs by sulforhodamine B assay relative to control; conditions: HCC 2998, 48 h, read-out: Activity
A549 = test: Cytotoxicity against human A549/ATCC cells assessed as cell growth at 100 uM after 48 hrs by sulforhodamine B assay relative to control; conditions: A549, 48 h, read-out: Activity
SK-MEL-5 [2] = test: Cytotoxicity against human SK-MEL-5 cells assessed as cell growth at 100 uM after 48 hrs by sulforhodamine B assay relative to control; conditions: SK-MEL-5, 48 h, read-out: Activity
COLO 205 [3] = test: Cytotoxicity against human COLO205 cells assessed as cell growth at 10 uM after 48 hrs by sulforhodamine B assay relative to control; conditions: COLO 205, 48 h, read-out: Activity
T47D = test: Cytotoxicity against human T47D cells assessed as cell growth at 100 uM after 48 hrs by sulforhodamine B assay relative to control; conditions: read-out: Activity
BT-549 = test: Cytotoxicity against human BT549 cells assessed as cell growth at 1 uM after 48 hrs by sulforhodamine B assay relative to control; conditions: BT-549, 48 h, read-out: Activity
MCF7 = test: Cytotoxicity against human MCF7 cells assessed as cell growth at 100 uM after 48 hrs by sulforhodamine B assay relative to control; conditions: MCF7, 48 h, read-out: Activity
IGROV-1 = test: Cytotoxicity against human IGROV1 cells assessed as growth inhibition after 48 hrs by sulforhodamine B assay; conditions: IGROV-1, 48 h
A498 [4] = test: Cytotoxicity against human A498 cells assessed as cell growth at 10 uM after 48 hrs by sulforhodamine B assay relative to control; conditions: A498, 48 h, read-out: Activity
NCI-H522 [5] = test: Cytotoxicity against human NCI-H522 cells assessed as cell growth at 10 uM after 48 hrs by sulforhodamine B assay relative to control; conditions: NCI-H522, 48 h, read-out: Activity
NCI-H226 = test: Cytotoxicity against human NCI-H226 cells assessed as cell growth at 0.1 uM after 48 hrs by sulforhodamine B assay relative to control; conditions: NCI-H226, 48 h, read-out: Activity
COLO 205 [6] = test: Cytotoxicity against human COLO205 cells assessed as cell growth at 1 uM after 48 hrs by sulforhodamine B assay relative to control; conditions: COLO 205, 48 h, read-out: Activity
SW-620 [7] = test: Cytotoxicity against human SW620 cells assessed as cell growth at 10 uM after 48 hrs by sulforhodamine B assay relative to control; conditions: SW-620, 48 h, read-out: Activity
SNB-19 = test: Cytotoxicity against human SNB19 cells assessed as cell growth at 0.01 uM after 48 hrs by sulforhodamine B assay relative to control; conditions: SNB-19, 48 h, read-out: Activity
HOP-62 = test: Cytotoxicity against human HOP62 cells assessed as cell growth at 10 uM after 48 hrs by sulforhodamine B assay relative to control; conditions: HOP-62, 48 h, read-out: Activity
RPMI-8226 = test: Cytotoxicity against human RPMI8226 cells assessed as cell growth at 0.01 uM after 48 hrs by sulforhodamine B assay relative to control; conditions: RPMI-8226, 48 h, read-out: Activity
UO-31 = test: Cytotoxicity against human UO31 cells assessed as cell growth at 10 uM after 48 hrs by sulforhodamine B assay relative to control; conditions: UO-31, 48 h, read-out: Activity
HCT-15 = test: Cytotoxicity against human HCT15 cells assessed as cell growth at 0.1 uM after 48 hrs by sulforhodamine B assay relative to control; conditions: HCT-15, 48 h, read-out: Activity
SN12C [8] = test: Cytotoxicity against human SN12C cells assessed as cell growth at 1 uM after 48 hrs by sulforhodamine B assay relative to control; conditions: read-out: Activity
SN12C [9] = test: Cytotoxicity against human SN12C cells assessed as cell growth at 10 uM after 48 hrs by sulforhodamine B assay relative to control; conditions: read-out: Activity
SW-620 [10] = test: Cytotoxicity against human SW620 cells assessed as cell growth at 0.1 uM after 48 hrs by sulforhodamine B assay relative to control; conditions: SW-620, 48 h, read-out: Activity
U-251 = test: Cytotoxicity against human U251 cells assessed as cell growth at 10 uM after 48 hrs by sulforhodamine B assay relative to control; conditions: U-251, 48 h, read-out: Activity
DU-145 = test: Cytotoxicity against human DU145 cells assessed as cell growth at 0.01 uM after 48 hrs by sulforhodamine B assay relative to control; conditions: DU-145, 48 h, read-out: Activity
SK-MEL-5 [11] = test: Cytotoxicity against human SK-MEL-5 cells assessed as cell growth at 0.01 uM after 48 hrs by sulforhodamine B assay relative to control; conditions: SK-MEL-5, 48 h, read-out: Activity
NCI-H522 [12] = test: Cytotoxicity against human NCI-H522 cells assessed as cell growth at 1 uM after 48 hrs by sulforhodamine B assay relative to control; conditions: NCI-H522, 48 h, read-out: Activity
SK-OV-3 = test: Cytotoxicity against human SKOV3 cells assessed as cell growth at 0.01 uM after 48 hrs by sulforhodamine B assay relative to control; conditions: SK-OV-3, 48 h, read-out: Activity
NCI-H460 = test: Cytotoxicity against human NCI-H460 cells assessed as cell growth at 1 uM after 48 hrs by sulforhodamine B assay relative to control; conditions: NCI-H460, 48 h, read-out: Activity
MDA-MB-435 [13] = test: Cytotoxicity against human MDA-MB-435 cells assessed as cell growth at 0.01 uM after 48 hrs by sulforhodamine B assay relative to control; conditions: MDA-MB-435, 48 h, read-out: Activity
Hs-578T = test: Cytotoxicity against human Hs 578T cells assessed as cell growth at 100 uM after 48 hrs by sulforhodamine B assay relative to control; conditions: read-out: Activity
MDA-MB-435 [14] = test: Cytotoxicity against human MDA-MB-435 cells assessed as growth inhibition after 48 hrs by sulforhodamine B assay; conditions: MDA-MB-435, 48 h
NCI-H322M = test: Cytotoxicity against human NCI-H322M cells assessed as cell growth at 0.1 uM after 48 hrs by sulforhodamine B assay relative to control; conditions: read-out: Activity
A498 [15] = test: Cytotoxicity against human A498 cells assessed as cell growth at 0.1 uM after 48 hrs by sulforhodamine B assay relative to control; conditions: A498, 48 h, read-out: Activity
UACC-257 [16] = test: Cytotoxicity against human UACC257 cells assessed as cell growth at 1 uM after 48 hrs by sulforhodamine B assay relative to control; conditions: UACC-257, 48 h, read-out: Activity
ACHN = test: Cytotoxicity against human ACHN cells assessed as cell growth at 0.1 uM after 48 hrs by sulforhodamine B assay relative to control; conditions: read-out: Activity
LOX IMVI = test: Cytotoxicity against human LOXIMVI cells assessed as growth inhibition after 48 hrs by sulforhodamine B assay

Row | SMILES | growth at 100 µM (UACC-257 [1]) [%] | growth at 1 µM (HCC 2998) [%] | growth at 100 µM (A549) [%] | growth at 100 µM (SK-MEL-5 [2]) [%] | growth at 10 µM (COLO 205 [3]) [%] | growth at 100 µM (T47D) [%] | growth at 1 µM (BT-549) [%] | LC50 (IGROV-1) [µM] | TGI (IGROV-1) [µM] | growth at 10 µM (A498 [4]) [%] | growth at 10 µM (NCI-H522 [5]) [%] | growth at 0.1 µM (NCI-H226) [%] | growth at 1 µM (COLO 205 [6]) [%] | growth at 10 µM (SW-620 [7]) [%] | growth at 0.01 µM (SNB-19) [%] | growth at 10 µM (HOP-62) [%] | growth at 0.01 µM (RPMI-8226) [%] | growth at 10 µM (UO-31) [%] | growth at 0.1 µM (HCT-15) [%] | growth at 1 µM (SN12C [8]) [%] | other results
1 | COc1cc(C(=O)/C=C/c2cc(-c3ccc4c(c3)OCO4)n[nH]2)cc(OC)c1OC | -97 | 100 | -80 | -97 | -47 | -87 | 89 | 23.4 | 5.72 | -39 | -71 | 93 | 95 | -57 | 92 | -24 | 101 | -96 | 101 | 90 | growth at 100 µM (MCF7): -69%; GI50 (IGROV-1): 1.99 µM; growth at 10 µM (SN12C [9]): -23%; growth at 0.1 µM (SW-620 [10]): 95%; growth at 10 µM (U-251): -96%; growth at 0.01 µM (DU-145): 102%; growth at 0.01 µM (SK-MEL-5 [11]): 99%; growth at 1 µM (NCI-H522 [12]): 80%; growth at 0.01 µM (SK-OV-3): 98%; growth at 1 µM (NCI-H460): 90%; growth at 0.01 µM (MDA-MB-435 [13]): 96%; growth at 100 µM (Hs-578T): -22%; GI50 (MDA-MB-435 [14]): 2.28 µM; LC50 (MDA-MB-435 [14]): 22.5 µM; TGI (MDA-MB-435 [14]): 5.8 µM; growth at 0.1 µM (NCI-H322M): 94%; growth at 0.1 µM (A498 [15]): 90%; growth at 1 µM (UACC-257 [16]): 96%; growth at 0.1 µM (ACHN): 103%
2 | COc1cc(-c2cc(/C=C/C(=O)c3ccc(F)c(F)c3)[nH]n2)cc(OC)c1OC | -37 | 99 | -15 | -88 | -90 | -11 | 92 | > 100 | 87 | -14 | -38 | 97 | 92 | 12 | 89 | 25 | 94 | 3 | 95 | 89 | LC50 (LOX IMVI): 41.5 µM; TGI (LOX IMVI): 12.2 µM; growth at 100 µM (MCF7): -20%; growth at 10 µM (SN12C [9]): 15%; growth at 0.1 µM (SW-620 [10]): 97%; growth at 10 µM (U-251): 7%; growth at 0.01 µM (SK-MEL-5 [11]): 98%; growth at 1 µM (NCI-H522 [12]): 71%; growth at 0.01 µM (SK-OV-3): 98%; growth at 1 µM (NCI-H460): 103%; growth at 0.01 µM (MDA-MB-435 [13]): 98%; growth at 100 µM (Hs-578T): -16%; LC50 (MDA-MB-435 [14]): > 100 µM; TGI (MDA-MB-435 [14]): 13.3 µM; growth at 0.1 µM (NCI-H322M): 94%; growth at 0.1 µM (A498 [15]): 96%; growth at 1 µM (UACC-257 [16]): 72%; growth at 0.1 µM (ACHN): 106%
3 | COc1cc(-c2cc(/C=C/C(=O)c3ccc(Cl)c(Cl)c3)[nH]n2)cc(OC)c1OC | -10 | 102 | 2 | -30 | 10 | -36 | 92 | > 100 | > 100 | 43 | -72 | 103 | 54 | 47 | 100 | -9 | 100 | 40 | 94 | 91 | LC50 (LOX IMVI): 78.4 µM; TGI (LOX IMVI): 16.4 µM; growth at 10 µM (SN12C [9]): 56%; growth at 0.1 µM (SW-620 [10]): 99%; growth at 10 µM (U-251): 48%; growth at 0.01 µM (SK-MEL-5 [11]): 98%; growth at 1 µM (NCI-H522 [12]): 67%; growth at 0.01 µM (SK-OV-3): 99%; growth at 1 µM (NCI-H460): 93%; growth at 0.01 µM (MDA-MB-435 [13]): 94%; growth at 100 µM (Hs-578T): 3%; LC50 (MDA-MB-435 [14]): > 100 µM; TGI (MDA-MB-435 [14]): > 100 µM; growth at 0.1 µM (NCI-H322M): 92%; growth at 0.1 µM (A498 [15]): 89%; growth at 1 µM (UACC-257 [16]): 90%; growth at 0.1 µM (ACHN): 105%
